Literature values in patent US6184241A, “Aspartic protease inhibitors” (Kansas State University Research Foundation, priority 1998, dated 2001).

Conditions: heterocyclic ring

For `c1c[nH]cn1` [imidazole], the pKa is listed as 6.0-7.0.
